The source of these data is patent US20130183239A1, “ISOTOPIC CARBON CHOLINE ANALOGS” (IMPERIAL COLLEGE, priority 2010, published 2013).

One data set deals with choline oxidase. Nature of the data set: Enzymatic oxidation study using choline oxidase. Particulars: 60 minute time point, radio-HPLC.
The conditions of data set [1]: mouse, in vivo. On the procedure: ^11C-choline, ^11C-D4-choline (˜18.5 MBq) and ^18F-D4-choline (˜3.7 MBq) were each injected via the tail vein of anaesthetized BALB/c nude mice. The mice were maintained under anesthesia and sacrificed by exsanguination via cardiac puncture at 2, 15, 30 or 60 min post radiotracer injection to obtain blood, plasma, heart, lung, liver, kidney and muscle. Tissue radioactivity was determined on a gamma counter (Cobra II Auto-Gamma counter, Packard Biosciences Co, Pangbourne, UK) and decay corrected. Data were expressed as percent injected dose per gram of tissue.
Time course biodistribution was performed in non-tumor-bearing male nude mice with ^11C-choline, ^11C-D4-choline and ^18F-D4-choline tracers.

For data set [2] the following is noted: mouse, in vivo. On the procedure: Radiolabeled metabolites from plasma and tissues were quantified using a method adapted from Smith G, Zhao Y, Leyton J, et al. Radiosynthesis and pre-clinical evaluation of [(18)F]fluoro-[1,2-(2)H(4)]choline. Nucl Med Biol. 2011; 38:39-51. Briefly, tumor-bearing mice under terminal anaesthesia were administered a bolus i.v. injection of one of the following radiotracers: ^11C-choline, ^11C-D4-choline (˜18.5 MBq) or ^18F-D4-choline (˜3.7 MBq), and sacrificed by exsanguination via cardiac puncture at 2, 15, 30 or 60 min post radiotracer injection. For automated radiosynthesis methodology, see Example 22. Tumor, kidney and liver samples were immediately snap-frozen in liquid nitrogen. Aliquots of heparinized blood were rapidly centrifuged (14000 g, 5 min, 4° C.) to obtain plasma. Plasma samples were subsequently snap-frozen in liquid nitrogen and kept on dry ice prior to analysis.
For analysis, samples were thawed and kept at 4° C. immediately before use. To ice cold plasma (200 μl) was added ice cold methanol (1.5 mL) and the resulting suspension centrifuged (14000 g; 4° C.; 3 min). The supernatant was then decanted and evaporated to dryness on a rotary evaporator (bath temperature, 40° C.), then resuspended in HPLC mobile phase (Solvent A: acetonitrile/water/ethanol/acetic acid/1.0 M ammonium acetate/0.1 M sodium phosphate [800/127/68/2/3/10]; 1.1 mL). Samples were filtered through a hydrophilic syringe filter (0.2 μm filter; Millex PTFE filter, Millipore, Mass., USA) and the sample (˜1 mL) then injected via a 1 mL sample loop onto the HPLC for analysis. Tissues were homogenized in ice-cold methanol (1.5 mL) using an Ultra-Turrax T-25 homogenizer (IKA Werke GmbH and Co. KG, Staufen, Germany) and subsequently treated as per plasma samples.
Samples were analyzed on an Agilent 1100 series HPLC system (Agilent Technologies, Santa Clara, Calif., USA), configured as described above, using the method of Leyton J, Smith G, Zhao Y, et al. [18F]fluoromethyl-[1, 2-2H4]-choline: a novel radiotracer for imaging choline metabolism in tumors by positron emission tomography. Cancer Res. 2009; 69:7721-7728. A μBondapak C18 HPLC column (Waters, Milford, Mass., USA; […]), stationary phase and a mobile phase comprising of Solvent A (vide supra) and Solvent B (acetonitrile/water/ethanol/acetic acid/1.0 M ammonium acetate/0.1 M sodium phosphate (400/400/68/44/88/10)), delivered at a flow rate of 3 mL/min were used for analyte separation. The gradient was set as follows: 0% B for 5 min; 0% to 100% B in 10 min; 100% B for 0.5 min; 100% to 0% B in 2 min; 0% B for 2.5 min.
A 2-tissue irreversible compartmental model was employed to fit the TACs, as has been previously established for ^11C-choline (Kenny L M, Contractor K B, Hinz R, et al. Reproducibility of [11C]choline-positron emission tomography and effect of trastuzumab. Clin Cancer Res. Aug. 15 2010; 16(16):4236-4245; and Sutinen E, Nurmi M, Roivainen A, et al. Kinetics of [(11)C]choline uptake in prostate cancer: a PET study. Eur J Nucl Med Mol. Imaging. March 2004; 31(3):317-324). An estimate of the whole blood TAC (wbTAC(t)) was derived from the PET image itself, as described above. […] Therefore it was fitted with a sum of 3 exponentials from the peak on and the fitted function was used as input function in the kinetic modeling (after metabolite correction, see below). […] The pf values were fitted to a sum of two exponentials with the constraint pf(t=0)=1 to obtain the function pf(t).
This is another data set of the same source.

Take `[2H]C([2H])(O)C([2H])([2H])[N+](C)(C)C[18F]` [[^18F]D4-FCH, [^18F]fluoromethyl-[1,2-^2H4]-choline]: the parent radiotracer present with choline oxidase came to 29±4%. Also, in data set [1], the “increase in kidney retention compared to 11C-choline” value came to 3.3 fold and the urinary excretion result is given as “trend towards increased urinary excretion”. Besides, in data set [2], the “liver radioactivity as betaine” value stood at 15.0±3.6%, the “liver radioactivity present as phosphocholine” value is reported as roughly 80%, the “plasma radioactivity in the form of betaine” value came to 43.7±12.4% and the “resistance to oxidation in the kidney” value is given as “more resistant to oxidation”.
